Experimental data: US20050014690A1, “Styryl acrylonitrile compounds and their use to promote myelopoiesis” (priority 2001, published 2005)
“Also recorded” adds a separate entry of the source. Each block holds one molecule with its values, some of them ahead of it.

Assays:
[1] = test system: normal bone marrow cells; experiment: CFU-C colony formation after short high dose exposure (2.5-5 hours), wash-out, 14 day culture; type: cell-based, human
Description: Stimulation of CFU-C colony formation with high dose CR4 for 2.5 hours. Bone marrow cells were layered over Percoll and centrifuged at 400 g at 4° C. for 10 minutes to remove neutrophils and RBCs. The cells were resuspended at 1×10^6/ml in complete medium with or without 50 μM CR4. The cells were incubated with the compound for two and a half hours at 37° C., 5% CO2. At the end of this period the cells were thoroughly washed in medium to remove CR4 and then cultured at 2×10^5 cells/ml in IMDM containing 0.9% (vol/vol) methylcellulose supplemented with 30% FCS or normal human plasma, and a cocktail of cytokines containing G-CSF (10 ng/ml), IL-3 (40 U/ml,), MGF (50 ng/ml), Erythropoietin or TPO and 5×10^−5M μ-2-mercaptoethanol. The culture mixture was plated in 1 ml volumes into 35 mm petri dishes and incubated at 37° C., 5% CO2 in a humidified atmosphere. All cultures were evaluated at 14 days for the number of CFU-C colonies. […] Stimulation of CFU-C colony formation with high dose CR4 for 2.5 and 5 hours. Bone marrow cells were prepared and treated as in Example 19, except exposure times of 2.5 and 5 hours were evaluated. The culture mixture was plated in 1 ml volumes into 35 mm petri dishes and incubated at 37° C., 5% CO2 in a humidified atmosphere. All cultures were evaluated at 14 days for the number of CFU-GM colonies (defined as granulocyte or macrophage cells or both). […] Stimulation of CFU-C colony formation with high dose CR4—two independent bone marrow samples (A&B). Bone marrow cells were prepared and treated as in Example 19, except that CR4 concentrations of 25 and 50 μM were evaluated. The culture mixtures was plated in 1 ml volumes into 35 mm petri dishes and incubated at 37° C., 5% CO2 in a humidified atmosphere. All cultures were evaluated at 14 days for the number of CFU-C colonies.

[2] = test system: mice; experiment: Peripheral white blood cell count in mice; type: in vivo; details: for white blood cells in the peripheral blood: SCI mouse model, similar kinetics to G-CSF treated mice; for white blood cell counts: mice injected daily, peripheral blood after 14 and 17 days, FIG. 9
Description: Promotion of peripheral white blood cell count by CR11. Mice were injected daily with CR11. 250 μl of 400 μM CR11 was injected in PBS. Controls were injected with matching concentrations of CR11 solvent (DMSO) in PBS, or recombinant human G-CSF. After 14 and 17 days blood peripheral blood samples were taken and white blood cell counts determined. Results from each group were averaged.

[3] = test system: transformed cell; experiment: Transformed cell growth; type: cell-based
[4] = test system: CD34+ multipotent stem cells; experiment: CFU-C colony formation from CD34+ selected stem cells; type: cell-based, human
[5] = test system: normal bone marrow cells; experiment: CFU-GEMM colony assay, normal bone marrow, compound present for 14 days; type: cell-based, human; details: for toxicity to normal bone marrow cells: until concentrations of 20 μM or greater; for number of CFU-GM or CFU-C colonies: in vitro assays of human bone marrow cell growth, continual exposure for 14 days, about 1-20 μM
Description: Treatment of normal bone marrow in culture with CR4. The CFU-GEMM assay was performed according to Fauser and Messner (Blood, 52(6) 1243-8,1978) and Messner and Fausser (Blut 41(5) 327-33, 1980) with some variations. In brief, heparinized bone marrow cells were layered over Percoll (1.077 gm/ml) and centrifuged at 400 g at 4° C. for 10 minutes to remove neutrophils and RBCs. The fractionated BM cells at 2×10^5 cells/ml were cultured in IMDM containing 0.9% (vol/vol) methylcellulose supplemented with 30% FCS or normal human plasma, a cocktail of cytokines containing G-CSF (10 ng/ml), IL-3 (40 U/ml), MGF (50 ng/ml), Erythropoietin (2u/ml) or TPO (10 ng/ml) and 5×10^−5M μ-2-mercaptoethanol. CR4 was added to the cells in concentrations indicated in FIG. 1 and the culture mixture was plated in 1 ml volumes into 35 mm petri dishes and incubated at 37° C., 5% CO2 in a humidified atmosphere. All cultures were evaluated at 14 days for the number of BFU-E colonies (defined as aggregates of more than 500 hemaglobinized cells or, 3 or more erythroid subcolonies), CFU-C colonies (defined as granulocyte or monocyte-macrophage cells or both), and CFU-GEMM colonies (a mixed population comprising of all elements). All control samples in this and other examples were treated with the matching concentration of the solvent (DMSO) for the compounds in the same medium or in the case of Example 21, PBS, as indicated. CFU-C stimulation with CR4 dose response. Bone marrow cells were prepared as in Example 15. CR4 was added to the cells at 10 or 20 μM. The culture mixture was plated in 1 ml volumes into 35 mm petri dishes and incubated at 37° C., 5% CO2 in a humidified atmosphere. All cultures were evaluated at 14 days for the number of CFU-C colonies (defined as granulocyte or monocyte-macrophage cells or both). […] Stimulation of CFU-C colony formation by CR11. Bone marrow cells were prepared as in Example 15. CR11 was added to the cells at 10 or 20 μM. The culture mixture was plated in 1 ml volumes into 35 mm petri dishes and incubated at 37° C., 5% […] in a humidified atmosphere. All cultures were evaluated at 14 days for the number of CFU-C colonies. […] CFU-C stimulation with CR19 dose response. Bone marrow cells were prepared as in Example 15. The culture mixture was plated in 1 ml volumes into 35 mm petri dishes and incubated at 37° C., 5% CO2 in a humidified atmosphere. All cultures were evaluated at 14 days for the number of BFU-E and CFU-C colonies.

[6] = test system: cells of the myeloid lineage; experiment: Promotion of myelopoiesis (general statement); details: in vitro, ex vivo and in vivo
[7] = test system: normal bone marrow mononuclear cells; experiment: Long-term culture-initiating cell (LTC-IC) assay on stroma after pre-incubation; type: cell-based, human; details: for myeloproliferation in long-term cultures: pre-incubated with 50 uM for 5 hours, FIG. 11
Excerpt: The long-term BM culture system provides the means to investigate the proliferation and differentiation properties of primitive hematopoietic cells. To assess the long-term effects of CR4 on early progenitor cells the long-term culture-initiating cell (LTC-IC) assay was set up utilizing stromal microenvironment. Briefly, to obtain stromal cells bone marrow mononuclear cells were suspended in long-term culture (LTC) media (MyeloCult Stem Cell Technologies Inc.) supplemented with 10^−6 mol/L hydrocortisone sodium succinate (HSS; Sigma Aldrich Canada Ltd., Mississauga, Ont.,Canada). Approximately 1×10^7 cells were plated into 25 cm^2 tissue culture flasks (Becton Dickinson Labware, Franklin Lakes, N.J., USA) and incubated for 3 days at […] in a humidified atmosphere with 5% CO2 followed by incubation at 33° C. Cultures were re-fed weekly by replacing half of the medium. Following stromal confluency (3-6 weeks) cells were trypsinized and irradiated (1,500 cGy) using a Cs source. Stromal cells were again replated in LTC media at a concentration of 0.5-1.0×10^6 cells per 35 mm culture dishes (Nunc-Gibco BRL, Gaithersburg, Md.). Subcultured stroma was incubated for 2-3 days (at greater than 70% confluency) prior to co-culturing with fresh non-adherent overlay of hematopoietic cells. Normal bone marrow mononuclear cells, purified by centrifugation on Percoll, at a concentration of 1×10^6 cells/ml were pre-incubated with 50 uM CR4 or the drug diluent alone for a period of 5 hours at 37° C. in media. Cells were then washed twice to remove the compound and plated at 2×10^5 cells/ml for the short-term CFU-GEMM clonogenic assay (as previously described) while the remainder of the non-adherent cells were co-cultured with normal stroma (as described above) for long-term cultures. Long-term cultures were set up with two unrelated normal bone marrow samples (NBM1 and NBM2). Half of the non-adherent mononuclear cells were removed weekly from the stromal co-cultures and plated for colony-forming cells (CFU-GM) in the CFU-GEMM assay.

[8] = test system: mice; experiment: Granulocytes in the spleen of treated mice; type: in vivo; details: for normal splenic granulocytes: daily injection, SCI mouse model; for non-specific damage to the animal: doses required to promote myelopoiesis, one month of continual administration

- other normal bone marrow cells ([1]; same doses (25-50 μM) over the same period (2-5 hours)): relatively unaffected
Molecule: N#C/C(=C\C=C\c1ccc(O)c(O)c1)C(=O)NCc1ccccc1 [CR4, (E,E)-2-(Benzylaminocarbonyl)-3-(3,4-dihydroxystyryl)acrylonitrile]
- CFU-C colony formation ([1]; 5 μM (so in the source), five hours exposure, FIG. 6): increased significantly
- CFU-C colony formation ([1]; 5 μM (so in the source), two and a half hours exposure, FIG. 6): increased significantly
- CFU-C colony formation ([1]; 25 μM, five hours exposure, bone marrow sample A, FIG. 7A): increased significantly
- CFU-C colony formation ([1]; 50 μM, five hours exposure, bone marrow sample A, FIG. 7A): increased significantly
- CFU-C colony formation ([1]; 50 μM, five hours exposure, other bone marrow sample, FIG. 7B): increased significantly
- CFU-C colony formation ([1]; 50 μM, two and a half hours exposure, FIG. 5): increased significantly
- myelopoiesis when the cells are cultured ([1]; 25-50 μM for 2-5 hours): increased myelopoiesis
- white blood cells in the peripheral blood [2]: Increased numbers
- transformed cell growth [3]: do not promote
- formation of CFU-C colonies from CD34+ stem cells ([4]; concentrations from 2.5-7.5 μM, 14 days, FIG. 2): significantly increased
- myeloproliferation with purified CD34+ and hematopoietic stem cells ([4]; short-term CFU-GEMM assay, FIG. 12): can be induced
- CFU-C colony formation ([5]; 10 μM, 14 days): significantly stimulated; also recorded: significantly increased
- BFU-E colony formation ([5]; 10 μM, 14 days, FIG. 1): some inhibition
- CFU-C colony formation ([5]; 20 μM, 14 days): equivalent to the control
- toxicity to normal bone marrow cells ([5]; 14 days): minimal toxicity
- CFU-C colony numbers ([5]; concentrations from about 0.6 to 10 μM, 14 days, FIG. 1): stimulated
- toxicity upon normal bone marrow ([5]; doses up to 5 μM, 14 days, FIG. 1): negligible toxicity
- number of CFU-GM or CFU-C colonies [5]: effective in increasing
- promoting myelopoiesis [6]: capable of promoting myelopoiesis
- number of CFU-GM in long-term cultures ([7]; 50 μM for 5 hours): significant increase
- myeloproliferation in long-term cultures ([7]; NBM1): significant increase
- myeloproliferation in long-term cultures ([7]; NBM2): significant increase
- normal splenic granulocytes [8]: tremendous increase
- non-specific damage to the animal [8]: did not result in detectable non-specific damage
- granulocytes in the spleen ([8]; mice, one month, subcutaneous osmotic pump, theoretical 200 μg/kg/hr, FIG. 10): Increase in granulocytes

Molecule: COc1cc(/C=C/C=C(C#N)C#N)cc(OC)c1O [CR7, (E,E)-2-cyano-3-(3,5-dimethoxy-4-hydroxystyryl)acrylonitrile]
- promoting myelopoiesis [6]: capable of promoting myelopoiesis

Molecule: COc1cc(/C=C/C=C(\C#N)C(=O)NCCc2ccccc2)cc(OC)c1O [CR8, (E,E)-2-(Phenylethylamido)-3-(3,5-dimethoxy-4-hydroxystyryl)acrylonitrile]
- promoting myelopoiesis [6]: capable of promoting myelopoiesis

Molecule: COc1cc(/C=C/C=C(\C#N)C(=O)NCc2ccc(O)c(O)c2)cc(OC)c1O [CR11, (E,E)-2-(3,4-Dihydroxybenzylaminocarbonyl)-3-(3,5-dimethoxy-4-hydroxystyryl)acrylonitrile]
- white blood cells in the peripheral blood [2]: Increased numbers
- white blood cell counts [2]: significantly increased
- transformed cell growth [3]: do not promote
- CFU-C colony formation ([5]; 10 μM, 14 days): elevated colony numbers slightly
- CFU-C colony formation ([5]; 20 μM, 14 days): significantly increased
- toxicity to normal bone marrow cells ([5]; 14 days): minimal toxicity
- number of CFU-GM or CFU-C colonies [5]: effective in increasing
- promoting myelopoiesis [6]: capable of promoting myelopoiesis
- normal splenic granulocytes [8]: tremendous increase
- non-specific damage to the animal [8]: did not result in detectable non-specific damage

Molecule: N#C/C(=C\C=C\c1ccccc1)C(=O)NCc1ccc(O)c(O)c1 [CR19, (E,E)-2-(3,4 Dihydroxybenzylaminocarbonyl)-3-styrylacrylonitrile]
- transformed cell growth [3]: do not promote
- CFU-C colony formation ([5]; 2.5 μM, 14 days, FIG. 8): significantly increased
- number of CFU-GM or CFU-C colonies [5]: effective in increasing
- promoting myelopoiesis [6]: capable of promoting myelopoiesis

Molecule: COc1cc(/C=C/C=C(\C#N)C(=O)NCc2ccccc2)ccc1O [CR56, (E,E)-2-(benzylaminocarbonyl)-3-(3-methoxy-4-hydroxystyryl)acrylonitrile]
- promoting myelopoiesis [6]: capable of promoting myelopoiesis

B1: G-CSF: recombinant human G-CSF (Granulocyte-Colony Stimulating Factor), injected as positive control (protein, UniProt P09919 31-207, looked up)
Granulocyte …: TPLGPASSLPQSFLLKCLEQVRKIQGDGAALQEKLVSECATYKLCHPEELVLLGHSLGIPWAPLSSCPSQALQLAGCLSQLHSGLFLYQGLLQALEGISPELGPTLDTLQLDVADFATTIWQQMEELGMAPALQPTQGAMPAFASAFQRRAGGVLVASHLQSFLEVSYRVLRHLAQP
- white blood cell counts [2]: significantly increased
